Assay results taken from US20220009920A1 (GB005, Inc., priority 2020, published 2022).

Tests used:
Test in all cases: Large panel kinase profiling
Assay type in all cases: biochemical
Conditions in all cases: 1 μM test article, 1 mM ATP
AKT2 = AKT2 (Homo sapiens, UniProt P31751)
How it was run: (§1)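 Fluorescence intensity (Ex 360 nm, Em 485 nm) was monitored continuously, once per minute, in PhosphoSens CSox-Sensor kinase reactions held at 30° C. Compound was present at 1 μM and ATP at 1 mM.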

ERBB2/HER2 = ERBB2/HER2 (Homo sapiens, UniProt P04626)
How it was run: as §1

FGFR4 = FGFR4 (Homo sapiens, UniProt P22455)
How it was run: as §1

HIPK1 = target: T1, HIPK1 (Homo sapiens, UniProt Q86Z02)
T1 construct: AssayQuant Technologies, Inc. (service provider)
How it was run: as §1

IRAK4 = target: T2, IRAK4 (Homo sapiens, UniProt Q9NWZ3)
T2 sequence (Q9NWZ3 1-460): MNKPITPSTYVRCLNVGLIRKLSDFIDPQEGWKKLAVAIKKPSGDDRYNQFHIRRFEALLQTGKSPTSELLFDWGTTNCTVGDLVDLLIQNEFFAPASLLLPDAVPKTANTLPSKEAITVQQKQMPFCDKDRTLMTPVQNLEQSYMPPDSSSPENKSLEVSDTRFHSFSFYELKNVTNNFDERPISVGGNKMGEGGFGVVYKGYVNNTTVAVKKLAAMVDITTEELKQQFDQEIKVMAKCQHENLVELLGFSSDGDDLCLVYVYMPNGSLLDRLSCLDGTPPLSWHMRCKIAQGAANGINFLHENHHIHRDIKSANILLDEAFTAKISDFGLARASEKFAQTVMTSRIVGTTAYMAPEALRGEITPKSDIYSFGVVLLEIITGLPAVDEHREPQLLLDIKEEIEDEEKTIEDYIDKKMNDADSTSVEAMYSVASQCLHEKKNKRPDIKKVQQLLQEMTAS
How it was run: as §1

LATS2 = target: T3, LATS2 (Homo sapiens, UniProt Q9NRM7)
T3 sequence (Q9NRM7 1-1088): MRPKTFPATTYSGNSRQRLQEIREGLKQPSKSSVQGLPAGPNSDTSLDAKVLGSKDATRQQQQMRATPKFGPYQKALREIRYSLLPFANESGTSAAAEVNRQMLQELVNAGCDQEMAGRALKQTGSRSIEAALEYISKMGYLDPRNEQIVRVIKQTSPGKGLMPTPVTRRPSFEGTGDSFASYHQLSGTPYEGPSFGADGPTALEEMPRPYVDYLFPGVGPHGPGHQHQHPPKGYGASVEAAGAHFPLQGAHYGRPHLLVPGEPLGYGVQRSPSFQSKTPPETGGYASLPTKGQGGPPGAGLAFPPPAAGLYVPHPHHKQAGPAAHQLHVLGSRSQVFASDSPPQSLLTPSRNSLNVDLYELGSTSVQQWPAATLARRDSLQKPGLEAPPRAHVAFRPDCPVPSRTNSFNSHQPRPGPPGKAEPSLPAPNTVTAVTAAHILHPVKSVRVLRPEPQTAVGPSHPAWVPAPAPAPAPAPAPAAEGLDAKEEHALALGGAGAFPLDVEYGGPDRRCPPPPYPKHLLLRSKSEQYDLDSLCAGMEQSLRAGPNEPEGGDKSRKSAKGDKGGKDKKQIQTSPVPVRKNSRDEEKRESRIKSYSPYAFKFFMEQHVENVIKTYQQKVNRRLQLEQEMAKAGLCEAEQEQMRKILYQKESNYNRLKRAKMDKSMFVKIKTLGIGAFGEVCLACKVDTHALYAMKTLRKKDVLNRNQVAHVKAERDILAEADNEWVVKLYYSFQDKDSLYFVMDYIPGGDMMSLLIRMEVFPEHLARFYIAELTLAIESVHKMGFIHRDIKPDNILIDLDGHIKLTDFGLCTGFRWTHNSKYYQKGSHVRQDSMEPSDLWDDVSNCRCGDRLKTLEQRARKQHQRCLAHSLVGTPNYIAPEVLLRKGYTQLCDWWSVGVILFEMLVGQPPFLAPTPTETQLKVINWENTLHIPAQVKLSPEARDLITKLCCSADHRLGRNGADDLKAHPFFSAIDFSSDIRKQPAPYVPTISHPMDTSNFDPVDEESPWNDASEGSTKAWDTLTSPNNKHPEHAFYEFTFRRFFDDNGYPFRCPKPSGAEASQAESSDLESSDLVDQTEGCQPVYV
How it was run: as §1

PIM1 = PIM1 (Homo sapiens, UniProt P11309)
How it was run: as §1

SK3 = target: T4, SK3 (Homo sapiens, UniProt Q9Y2K2)
T4 construct: AssayQuant Technologies, Inc. (contract assay)
How it was run: as §1

Sequence of FGFR4 (P22455 22-802, species assumed): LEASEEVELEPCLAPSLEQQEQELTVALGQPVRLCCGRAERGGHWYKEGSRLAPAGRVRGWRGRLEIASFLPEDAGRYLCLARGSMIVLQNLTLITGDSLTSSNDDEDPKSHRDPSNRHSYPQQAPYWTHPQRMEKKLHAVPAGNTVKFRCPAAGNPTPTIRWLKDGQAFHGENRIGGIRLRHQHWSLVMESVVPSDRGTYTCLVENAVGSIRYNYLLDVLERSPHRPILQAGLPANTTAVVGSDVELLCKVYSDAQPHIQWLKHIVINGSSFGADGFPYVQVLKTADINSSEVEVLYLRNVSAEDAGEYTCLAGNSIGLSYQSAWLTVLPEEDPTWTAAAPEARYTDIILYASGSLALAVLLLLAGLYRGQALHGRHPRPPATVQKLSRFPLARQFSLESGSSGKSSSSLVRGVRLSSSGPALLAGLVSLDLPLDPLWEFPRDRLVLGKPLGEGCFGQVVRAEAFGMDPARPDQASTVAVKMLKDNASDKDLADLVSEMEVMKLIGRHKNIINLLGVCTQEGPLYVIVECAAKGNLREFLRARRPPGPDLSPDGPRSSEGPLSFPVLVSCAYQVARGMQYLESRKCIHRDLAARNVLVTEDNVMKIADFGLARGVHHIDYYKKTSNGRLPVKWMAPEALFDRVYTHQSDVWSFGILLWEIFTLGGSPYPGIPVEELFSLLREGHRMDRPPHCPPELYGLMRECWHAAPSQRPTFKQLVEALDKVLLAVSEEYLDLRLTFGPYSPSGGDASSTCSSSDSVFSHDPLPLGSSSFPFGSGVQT
T1 sequence (Q86Z02 whole entry, species assumed): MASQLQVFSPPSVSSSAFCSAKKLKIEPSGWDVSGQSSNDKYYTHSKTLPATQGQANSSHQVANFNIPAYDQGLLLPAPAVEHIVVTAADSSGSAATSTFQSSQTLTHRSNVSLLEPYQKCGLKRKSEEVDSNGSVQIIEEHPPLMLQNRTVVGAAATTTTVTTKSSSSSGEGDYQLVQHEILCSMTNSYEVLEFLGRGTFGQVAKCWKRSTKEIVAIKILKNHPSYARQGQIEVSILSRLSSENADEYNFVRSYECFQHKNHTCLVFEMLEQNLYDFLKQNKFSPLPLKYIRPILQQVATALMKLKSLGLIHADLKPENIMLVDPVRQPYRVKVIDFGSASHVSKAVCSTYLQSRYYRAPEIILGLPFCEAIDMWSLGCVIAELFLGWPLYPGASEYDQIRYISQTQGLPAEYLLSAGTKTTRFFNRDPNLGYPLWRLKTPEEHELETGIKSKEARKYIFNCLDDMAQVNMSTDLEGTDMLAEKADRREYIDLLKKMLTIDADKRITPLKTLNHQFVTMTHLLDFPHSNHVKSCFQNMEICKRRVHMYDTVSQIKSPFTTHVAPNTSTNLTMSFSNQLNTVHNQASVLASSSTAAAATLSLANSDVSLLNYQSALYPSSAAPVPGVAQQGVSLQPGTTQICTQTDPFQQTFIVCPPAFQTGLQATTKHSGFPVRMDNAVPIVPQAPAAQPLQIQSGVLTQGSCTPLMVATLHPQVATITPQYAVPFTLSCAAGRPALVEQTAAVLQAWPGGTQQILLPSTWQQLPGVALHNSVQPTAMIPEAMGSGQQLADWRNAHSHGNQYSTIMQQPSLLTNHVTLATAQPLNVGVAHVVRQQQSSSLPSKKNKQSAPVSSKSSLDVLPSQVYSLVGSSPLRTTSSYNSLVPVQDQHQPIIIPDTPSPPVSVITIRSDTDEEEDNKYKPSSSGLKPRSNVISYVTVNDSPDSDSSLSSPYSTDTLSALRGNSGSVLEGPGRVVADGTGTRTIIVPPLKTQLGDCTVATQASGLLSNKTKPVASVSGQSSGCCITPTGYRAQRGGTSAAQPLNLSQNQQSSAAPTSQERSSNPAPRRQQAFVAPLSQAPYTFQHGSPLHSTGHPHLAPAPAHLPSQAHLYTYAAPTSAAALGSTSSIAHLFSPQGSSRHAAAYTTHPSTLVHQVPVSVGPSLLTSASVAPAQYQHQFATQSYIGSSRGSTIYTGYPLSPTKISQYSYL
Sequence of AKT2 (P31751 whole entry): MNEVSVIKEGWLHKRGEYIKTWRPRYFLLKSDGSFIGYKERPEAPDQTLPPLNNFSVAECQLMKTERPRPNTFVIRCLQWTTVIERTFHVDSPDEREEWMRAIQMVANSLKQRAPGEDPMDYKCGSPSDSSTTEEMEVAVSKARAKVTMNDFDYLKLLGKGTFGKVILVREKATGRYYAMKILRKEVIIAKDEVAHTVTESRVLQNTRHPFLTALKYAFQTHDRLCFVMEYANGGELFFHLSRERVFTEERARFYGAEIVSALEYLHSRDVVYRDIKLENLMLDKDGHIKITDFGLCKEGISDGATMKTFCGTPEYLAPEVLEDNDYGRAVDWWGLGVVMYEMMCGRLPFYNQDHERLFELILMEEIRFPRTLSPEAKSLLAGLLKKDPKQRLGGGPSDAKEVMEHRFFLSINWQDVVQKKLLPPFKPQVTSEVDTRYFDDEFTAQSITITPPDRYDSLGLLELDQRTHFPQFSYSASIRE
T4 sequence (Q9Y2K2 whole entry): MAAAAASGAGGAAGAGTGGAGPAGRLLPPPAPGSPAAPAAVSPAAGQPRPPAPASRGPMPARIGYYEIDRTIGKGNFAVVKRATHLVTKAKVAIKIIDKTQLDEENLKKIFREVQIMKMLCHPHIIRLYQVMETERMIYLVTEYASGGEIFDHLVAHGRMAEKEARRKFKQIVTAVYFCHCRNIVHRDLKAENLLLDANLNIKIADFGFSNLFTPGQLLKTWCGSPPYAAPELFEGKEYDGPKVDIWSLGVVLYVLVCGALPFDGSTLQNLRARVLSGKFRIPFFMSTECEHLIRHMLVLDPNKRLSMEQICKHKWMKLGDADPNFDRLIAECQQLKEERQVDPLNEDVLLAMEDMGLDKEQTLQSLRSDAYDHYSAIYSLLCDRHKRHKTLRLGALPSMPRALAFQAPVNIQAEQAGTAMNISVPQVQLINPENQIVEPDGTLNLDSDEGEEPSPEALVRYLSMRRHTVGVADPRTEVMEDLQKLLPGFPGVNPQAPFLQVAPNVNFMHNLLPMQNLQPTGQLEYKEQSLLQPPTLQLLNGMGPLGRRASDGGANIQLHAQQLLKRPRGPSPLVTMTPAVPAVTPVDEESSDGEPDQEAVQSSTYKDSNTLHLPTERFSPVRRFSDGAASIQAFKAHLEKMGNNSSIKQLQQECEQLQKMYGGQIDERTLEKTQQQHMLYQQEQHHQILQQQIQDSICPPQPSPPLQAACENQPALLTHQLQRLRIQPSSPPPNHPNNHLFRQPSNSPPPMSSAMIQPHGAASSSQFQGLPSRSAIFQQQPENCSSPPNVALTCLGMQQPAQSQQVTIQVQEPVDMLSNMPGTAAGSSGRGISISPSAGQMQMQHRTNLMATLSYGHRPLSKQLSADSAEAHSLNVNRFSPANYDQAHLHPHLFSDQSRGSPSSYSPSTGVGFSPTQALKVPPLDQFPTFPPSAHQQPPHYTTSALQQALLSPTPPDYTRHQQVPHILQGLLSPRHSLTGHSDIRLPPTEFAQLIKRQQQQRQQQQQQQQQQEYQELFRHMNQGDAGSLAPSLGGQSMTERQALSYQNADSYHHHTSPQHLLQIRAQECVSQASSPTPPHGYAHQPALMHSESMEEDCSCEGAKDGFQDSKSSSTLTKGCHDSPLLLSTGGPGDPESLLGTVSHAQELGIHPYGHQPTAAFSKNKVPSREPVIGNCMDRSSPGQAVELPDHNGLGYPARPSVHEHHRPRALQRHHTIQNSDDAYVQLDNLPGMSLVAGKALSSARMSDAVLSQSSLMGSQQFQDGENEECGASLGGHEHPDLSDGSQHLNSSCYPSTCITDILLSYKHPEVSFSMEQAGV
Sequence of PIM1 (P11309 whole entry, species assumed): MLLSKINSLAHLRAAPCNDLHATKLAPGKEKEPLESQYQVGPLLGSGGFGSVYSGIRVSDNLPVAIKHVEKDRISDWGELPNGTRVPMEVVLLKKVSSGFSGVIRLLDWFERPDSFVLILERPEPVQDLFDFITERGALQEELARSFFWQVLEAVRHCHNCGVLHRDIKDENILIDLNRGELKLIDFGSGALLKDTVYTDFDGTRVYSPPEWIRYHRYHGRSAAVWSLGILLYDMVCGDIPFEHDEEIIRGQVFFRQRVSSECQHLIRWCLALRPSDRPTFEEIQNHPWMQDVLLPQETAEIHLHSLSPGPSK

Structure (SMILES) | inhibition at 1 µM (AKT2) [%] | inhibition at 1 µM (ERBB2/HER2) [%] | inhibition at 1 µM (FGFR4) [%] | inhibition at 1 µM (HIPK1) [%] | inhibition at 1 µM (IRAK4) [%] | inhibition at 1 µM (LATS2) [%] | inhibition at 1 µM (PIM1) [%] | inhibition at 1 µM (SK3) [%]
C=CC(=O)N1CCCC(c2c(F)cc(C(N)=O)c3[nH]c4c(c23)CCCCC4)C1 (single isomer, unassigned) [Compound 5-6] | 0.5 | -2.2 | 24.5 | 6.6 | -4.7 | 6.3 | 7 | 5.3
C=CC(=O)N1CCC[C@@H](c2c(F)cc(C(N)=O)c3[nH]c4c(c23)CCC4)C1 [Compound 10-2, (S)-8-(1-acryloylpiperidin-3-yl)-7-fluoro-1,2,3,4-tetrahydrocyclo-penta[b]indole-5-carboxamide] | 11.9 | 14.5 | 9.8 | 33.6 | -9.2 | -0.7 | -7.1 | 11.6
C=CC(=O)N1CCC[C@@H](c2c(F)cc(C(N)=O)c3[nH]c4c(c23)CC2(CC4)CC2)C1 [Compound 6-2, (S)-5-(1-acryloylpiperidin-3-yl)-6-fluoro-1,2,4,9-tetrahydrospiro[carbazole-3,1′-cyclopropane]-8-carboxamide] | 0.4 | 11.9 | 4.9 | 41.1 | 4.1 | 1.5 | -43 | 14.7
